From ChEMBL document CHEMBL3044799, “Biological activity of the succinate dehydrogenase inhibitor fluopyram against Botrytis cinerea and fungal baseline sensitivity” (Pest Manag Sci, 2012) come the findings set out here.

In experiment [1] the test system is Botrytis cinerea. In words: Curative antifungal activity against Botryotinia fuckeliana inoculated in strawberry fruit assessed as disease control efficacy at 1 ug AI/ml applied 24 hr post-inoculation relative to control. The format is functional.
The subject of experiment [2] is Botrytis cinerea. In words: Curative antifungal activity against Botryotinia fuckeliana inoculated in strawberry fruit assessed as disease severity measuring lesion diameter at 100 ug AI/ml applied 24 hr post-inoculation. Format: functional.
In experiment [3] the test system is Botrytis cinerea. Description: Curative antifungal activity against Botryotinia fuckeliana inoculated in strawberry fruit assessed as disease severity measuring lesion diameter at 50 ug AI/ml applied 24 hr post-inoculation. The format is functional.
The subject of experiment [4] is Botrytis cinerea. In words: Curative antifungal activity against Botryotinia fuckeliana inoculated in strawberry fruit assessed as disease severity measuring lesion diameter at 10 ug AI/ml applied 24 hr post-inoculation. The format is functional.
Experiment [5] has as its system Botrytis cinerea. Description: Curative antifungal activity against Botryotinia fuckeliana inoculated in strawberry fruit assessed as disease control efficacy at 100 ug AI/ml applied 48 hr post-inoculation relative to control. The format is functional.
Experiment [6] deals with Botrytis cinerea. Description: Curative antifungal activity against Botryotinia fuckeliana inoculated in strawberry fruit assessed as disease severity measuring lesion diameter at 100 ug AI/ml applied 48 hr post-inoculation. The format is functional.
Experiment [7] deals with Botrytis cinerea. Description: Antifungal activity against Botryotinia fuckeliana obtained from grape isolate assessed as inhibition of spore germ tube growth. Format: functional, organism-based.
The test system of experiment [8] is Botrytis cinerea. In words: Antifungal activity against Botryotinia fuckeliana obtained from tomato isolate assessed as inhibition of spore germ tube growth. The format is functional, organism-based.
Experiment [9] relates to Botrytis cinerea. In words: Antifungal activity against Botryotinia fuckeliana grown on YBA agar assessed as inhibition of mycelial growth at 5 ug/ml after 10 days. The format is functional, organism-based.
In experiment [10] the test system is Botrytis cinerea. Description: Antifungal activity against Botryotinia fuckeliana grown on PDA medium assessed as inhibition of mycelial growth at 10 ug/ml after 10 days. Format: functional, organism-based.
In experiment [11] the test system is Botrytis cinerea. Description: Curative antifungal activity against Botryotinia fuckeliana inoculated in strawberry fruit assessed as disease control efficacy at 100 ug AI/ml applied 96 hr post-inoculation relative to control. Format: functional.
In experiment [12] the test system is Botrytis cinerea. In words: Curative antifungal activity against Botryotinia fuckeliana inoculated in strawberry fruit assessed as disease control efficacy at 10 ug AI/ml applied 96 hr post-inoculation relative to control. Format: functional.
The subject of experiment [13] is Botrytis cinerea. In words: Curative antifungal activity against Botryotinia fuckeliana inoculated in strawberry fruit assessed as disease control efficacy at 1 ug AI/ml applied 96 hr post-inoculation relative to control. Format: functional.
Experiment [14] deals with Botrytis cinerea. Description: Antifungal activity against Botryotinia fuckeliana grown on succinate medium assessed as inhibition of spore germination at 5 ug/ml after 10 days. Format: functional, organism-based.
Experiment [15] relates to Botrytis cinerea. Description: Antifungal activity against Botryotinia fuckeliana assessed as inhibition of spore germination at 0.001 to 10 ug/ml after 10 days. Format: functional, organism-based.
For experiment [16], the system named is Botrytis cinerea. In words: Protective antifungal activity against Botryotinia fuckeliana inoculated in fungicide-applied strawberry fruit assessed as disease control efficacy at 1 ug AI/ml applied 96 hr prior-inoculation relative to control. Format: functional.
Experiment [17] concerns Botrytis cinerea. In words: Protective antifungal activity against Botryotinia fuckeliana inoculated in fungicide-applied strawberry fruit assessed as disease severity measuring lesion diameter at 1 ug AI/ml applied 96 hr prior-inoculation. Format: functional.
For experiment [18], the system named is Botrytis cinerea. Description: Curative antifungal activity against Botryotinia fuckeliana inoculated in strawberry fruit assessed as disease severity measuring lesion diameter at 1 ug AI/ml applied 96 hr post-inoculation. The format is functional.
Experiment [19] has as its system Botrytis cinerea. In words: Protective antifungal activity against Botryotinia fuckeliana inoculated in fungicide-applied strawberry fruit assessed as disease control efficacy at 10 ug AI/ml applied 48 hr prior inoculation relative to control. Format: functional.
The subject of experiment [20] is Botrytis cinerea. In words: Curative antifungal activity against Botryotinia fuckeliana inoculated in strawberry fruit assessed as disease severity measuring lesion diameter at 1 ug AI/ml applied 48 hr post-inoculation. Format: functional.
In experiment [21] the test system is Botrytis cinerea. Description: Protective antifungal activity against Botryotinia fuckeliana inoculated in fungicide-applied strawberry fruit assessed as disease control efficacy at 50 ug AI/ml applied 24 hr prior inoculation relative to control. The format is functional.
Experiment [22] relates to Botrytis cinerea. In words: Protective antifungal activity against Botryotinia fuckeliana inoculated in fungicide-applied strawberry fruit assessed as disease control efficacy at 10 ug AI/ml applied 24 hr prior inoculation relative to control. Format: functional.
Experiment [23] deals with Botrytis cinerea. Description: Protective antifungal activity against Botryotinia fuckeliana inoculated in fungicide-applied strawberry fruit assessed as disease control efficacy at 1 ug AI/ml applied 24 hr prior inoculation relative to control. Format: functional.
Experiment [24] has as its system Botrytis cinerea. Description: Protective antifungal activity against Botryotinia fuckeliana inoculated in fungicide-applied strawberry fruit assessed as disease severity measuring lesion diameter at 100 ug AI/ml applied 24 hr prior inoculation. Format: functional.

Converted amounts (≈) assume the structure as drawn. The source made the active and inactive calls. No cut-off for these calls is given here.

On to `O=C(NCCc1ncc(C(F)(F)F)cc1Cl)c1ccccc1C(F)(F)F` [FLUOPYRAM], for which the Efficacy amounted to 53% in the experiment on Botrytis cinerea [1]; 92.2% in the experiment with Botrytis cinerea [5]; 62.5% in the experiment with Botrytis cinerea [11]; 41.1% in the experiment with Botrytis cinerea [12]; 37.2% with Botrytis cinerea [13]; 53.6% with Botrytis cinerea [16]. The Efficacy with Botrytis cinerea [19] is 70.8%; with Botrytis cinerea [21] it was 93.9%; in the experiment on Botrytis cinerea [22], 77.2%; with Botrytis cinerea [23], 66.4%. The Activity in the experiment on Botrytis cinerea [2] stood at 3.9 mm; in the experiment on Botrytis cinerea [3], 4.2 mm; in the experiment with Botrytis cinerea [4], 5.7 mm; in the experiment with Botrytis cinerea [6], 1.4 mm; in the experiment on Botrytis cinerea [17] it was 8.7 mm; in the experiment with Botrytis cinerea [18] it was 11.8 mm. For the same molecule, the Activity with Botrytis cinerea [20] came out at 6.9 mm; with Botrytis cinerea [24] it was 0 mm. The EC50 (commonly the concentration needed to bring the measured effect to its halfway point) in the experiment on Botrytis cinerea [7] came out at 0.13 µg/mL (≈ 0.328 µM); in the experiment on Botrytis cinerea [8] it was 0.11 µg/mL (≈ 0.277 µM). For the same molecule, the “growth inhibition (GI)” value in the experiment with Botrytis cinerea [9], in the experiment on Botrytis cinerea [14] and in the experiment with Botrytis cinerea [15] was “Active” in each case. In the experiment on Botrytis cinerea [10], the “growth inhibition (GI)” value is “inactive”.
